Test results as given in patent US20210261569A1, “FUSED HETEROCYCLIC DERIVATIVES HAVING SELECTIVE BACE1 INHIBITORY ACTIVITY” (Shionogi & Co., Ltd., priority 2018, published 2021).

Experiments:
[1] = Metabolic stability test; assay type: in vitro ADME; conditions: human liver microsomes 0.5 mg protein/mL, NADPH, 37° C.
Method: Using a commercially available pooled human liver microsomes, a compound of the present invention was reacted for a constant time, a remaining rate was calculated by comparing a reacted sample and an unreacted sample, thereby, a degree of metabolism in liver was assessed.
A reaction was performed (oxidative reaction) at 37° C. for 0 minute or 30 minutes in the presence of 1 mmol/L NADPH in 0.2 mL of a buffer (50 mmol/L Tris-HCl pH 7.4, 150 mmol/L potassium chloride, 10 mmol/L magnesium chloride) containing 0.5 mg protein/mL of human liver microsomes. After the reaction, 50 μL of the reaction solution was added to 100 μL of a methanol/acetonitrile=1/1 (v/v), mixed and centrifuged at 3000 rpm for 15 minutes. The compound of the present invention in the supernatant was quantified by LC/MS/MS or solid phase extraction (SPE)/MS, and a remaining amount of the compound of the present invention after the reaction was calculated, letting a compound amount at 0 minute reaction time to be 100%.

[2] = molecular target: T1, P-gp (MDR1 expressing LLC-PK1 cells) (Homo sapiens, UniProt P08183); assay: P-gp substrate test; assay type: in vitro ADME; conditions: MDR1 expressing LLC-PK1 cells vs parent LLC-PK1 cells
T1 construct: host or cells: LLC-PK1 (porcine kidney) cells
T1 sequence (P08183 whole entry): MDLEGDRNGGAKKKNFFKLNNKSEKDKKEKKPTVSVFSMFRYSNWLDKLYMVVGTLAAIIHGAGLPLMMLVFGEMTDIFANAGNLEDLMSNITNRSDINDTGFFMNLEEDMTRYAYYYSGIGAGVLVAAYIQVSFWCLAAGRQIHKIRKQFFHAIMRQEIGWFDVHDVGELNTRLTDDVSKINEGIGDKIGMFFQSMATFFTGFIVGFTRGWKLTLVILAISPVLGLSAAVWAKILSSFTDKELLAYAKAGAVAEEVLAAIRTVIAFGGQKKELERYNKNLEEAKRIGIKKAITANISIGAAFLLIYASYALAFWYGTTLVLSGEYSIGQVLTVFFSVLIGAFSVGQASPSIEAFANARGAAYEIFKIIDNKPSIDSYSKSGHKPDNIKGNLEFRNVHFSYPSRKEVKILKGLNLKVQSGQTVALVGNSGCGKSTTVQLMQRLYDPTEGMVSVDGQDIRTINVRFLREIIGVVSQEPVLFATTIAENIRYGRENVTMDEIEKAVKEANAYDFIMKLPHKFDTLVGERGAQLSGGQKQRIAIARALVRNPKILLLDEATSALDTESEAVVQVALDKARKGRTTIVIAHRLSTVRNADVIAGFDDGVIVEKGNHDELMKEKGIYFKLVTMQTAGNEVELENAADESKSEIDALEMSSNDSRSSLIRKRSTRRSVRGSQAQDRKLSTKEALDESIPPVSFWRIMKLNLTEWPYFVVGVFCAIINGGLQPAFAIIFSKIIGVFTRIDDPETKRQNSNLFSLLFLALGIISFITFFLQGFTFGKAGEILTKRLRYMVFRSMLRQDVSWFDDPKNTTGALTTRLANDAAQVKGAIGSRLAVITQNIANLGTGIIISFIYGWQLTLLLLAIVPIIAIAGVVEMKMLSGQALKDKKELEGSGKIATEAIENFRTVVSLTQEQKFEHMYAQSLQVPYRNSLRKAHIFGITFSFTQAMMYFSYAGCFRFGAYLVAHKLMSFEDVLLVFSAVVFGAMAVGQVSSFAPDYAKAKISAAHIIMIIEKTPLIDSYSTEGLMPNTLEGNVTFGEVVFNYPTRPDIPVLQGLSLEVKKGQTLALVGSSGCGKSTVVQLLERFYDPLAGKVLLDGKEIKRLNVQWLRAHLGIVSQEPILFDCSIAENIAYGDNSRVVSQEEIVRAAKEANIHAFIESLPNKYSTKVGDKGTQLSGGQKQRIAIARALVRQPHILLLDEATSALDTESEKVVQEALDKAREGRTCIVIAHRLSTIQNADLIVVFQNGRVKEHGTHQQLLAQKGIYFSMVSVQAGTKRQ
Method: 1. MDR1 expressing LLC-PK1 cells and its parent cells were routinely cultured in Medium A (Medium 199 (Invitrogen) supplemented with 10% FBS (Invitrogen), gentamycin (0.05 mg/mL, Invitrogen) and hygromycin B (100 μg/mL, Invitrogen)) at 37° C. under 5% CO2/95% 02 gasses. For the transport experiments, these cells were seeded on Transwell (Registered trademark) insert (96-well, pore size: 0.4 μm, Coaster) at a density of 1.4×10^4 cells/insert and added Medium B (Medium 199 supplemented with 10% FBS and gentamycin at 0.05 mg/mL) to the feeder tray. These cells were incubated in a CO2 incubator (5% CO2/95% 02 gasses, 37° C.) and replace apical and basolateral culture medium every 48-72 hr after seeding. These cells were used between 4 and 6 days after seeding. 2. The medium in the culture insert seeded with MDR1 expressing cells or parent cells were removed by aspiration and rinsed by HBSS. The apical side (140 μL) or basolateral side (175 μL) was replaced with transport buffer containing reference substrates and the present invention and then an aliquot (50 μL) of transport buffer in the donor side was collected to estimate initial concentration of reference substrate and the present invention. After incubation for designed time at 37° C., an aliquot (50 μL) of transport buffer in the donor and receiver side were collected. Assay was performed by duplicate or triplicate. 3. Reference substrate and the present invention in the aliquot was quantified by LC/MS/MS.
Permeated amounts across monolayers of MDR1 expressing and parent cells were determined, and permeation coefficients (Pe) were calculated using Excel 2003 from the following equitation:
Pe (cm/sec)=Permeated amount (pmol)/area of cell membrane (cm^2)/initial concentration (nM)/incubation time (sec) Where, permeated amount was calculated from permeation concentration (nM, concentration of the receiver side) of the substance after incubation for the defined time (sec) multiplied by volume. (mL) and area of cell membrane was used 0.1433 (cm2). The efflux ratio was calculated using the following equation:
Efflux Ratio=Basolateral-to-Apical Pe/Apical-to-Basolateral Pe
The net flux was calculated using the following equation:
Net flux=Efflux Ratio in MDR1 expressing cells/Efflux Ratio in parent cells

[3] = molecular target: T2, human ether-a-go-go related gene (hERG) channel (Homo sapiens, UniProt Q12809); assay: hERG test (whole cell patch clamp, QPatch); assay type: cell-based; conditions: CHO cells expressing hERG, tail peak current
T2 construct: expressed in transfected cells; host or cells: CHO cells
T2 sequence (Q12809 whole entry): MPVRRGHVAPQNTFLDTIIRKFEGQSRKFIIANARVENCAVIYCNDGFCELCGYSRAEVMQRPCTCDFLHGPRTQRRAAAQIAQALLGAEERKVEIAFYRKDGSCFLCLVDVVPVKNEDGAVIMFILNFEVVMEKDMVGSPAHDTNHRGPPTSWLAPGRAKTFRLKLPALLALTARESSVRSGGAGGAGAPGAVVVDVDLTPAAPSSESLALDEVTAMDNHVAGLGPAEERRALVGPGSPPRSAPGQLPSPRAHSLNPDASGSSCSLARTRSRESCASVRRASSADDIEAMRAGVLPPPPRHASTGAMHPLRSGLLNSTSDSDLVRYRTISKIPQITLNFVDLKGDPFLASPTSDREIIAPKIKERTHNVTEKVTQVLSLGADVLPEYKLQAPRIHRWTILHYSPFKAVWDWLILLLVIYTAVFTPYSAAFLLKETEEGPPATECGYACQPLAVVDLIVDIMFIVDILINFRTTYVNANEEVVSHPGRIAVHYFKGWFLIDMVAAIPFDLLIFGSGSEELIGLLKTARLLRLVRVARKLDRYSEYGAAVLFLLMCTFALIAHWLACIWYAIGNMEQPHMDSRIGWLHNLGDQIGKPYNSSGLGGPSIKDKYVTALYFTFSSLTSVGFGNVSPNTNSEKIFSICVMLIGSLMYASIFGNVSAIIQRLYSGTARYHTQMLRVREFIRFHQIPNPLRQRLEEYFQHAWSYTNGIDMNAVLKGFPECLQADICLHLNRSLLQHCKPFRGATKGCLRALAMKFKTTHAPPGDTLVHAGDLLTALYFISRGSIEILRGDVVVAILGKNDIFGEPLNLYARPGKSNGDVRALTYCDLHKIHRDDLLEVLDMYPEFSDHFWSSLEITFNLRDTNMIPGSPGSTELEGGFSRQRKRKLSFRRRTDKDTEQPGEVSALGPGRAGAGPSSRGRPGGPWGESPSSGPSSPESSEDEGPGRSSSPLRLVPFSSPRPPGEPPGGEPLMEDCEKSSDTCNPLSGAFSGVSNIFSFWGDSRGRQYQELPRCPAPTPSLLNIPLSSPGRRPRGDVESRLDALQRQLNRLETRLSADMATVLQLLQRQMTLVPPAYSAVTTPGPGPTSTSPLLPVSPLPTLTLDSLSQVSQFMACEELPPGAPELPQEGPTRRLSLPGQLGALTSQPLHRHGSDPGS
Excerpt: For the purpose of assessing risk of an electrocardiogram QT interval prolongation, effects on delayed rectifier K+ current (IKr), which plays an important role in the ventricular repolarization process of the compound of the present invention, was studied using CHO cells expressing human ether-a-go-go related gene (hERG) channel.
A cell was retained at a membrane potential of −80 mV by whole cell patch clamp method using an automated patch clamp system (QPatch; Sophion Bioscience A/S). After application of leak potential at −50 mV, IKr induced by depolarization pulse stimulation at +20 mV for 2 seconds and, further, repolarization pulse stimulation at −50 mV for 2 seconds was recorded.
After the generated current was stabilized, extracellular solution (NaCl: 145 mmol/L, KCl: 4 mmol/L, CaCl2:2 mmol/L MgCl2:1 mmol/L, 1 mmol/L, HEPES (4-(2-hydroxyethyl)-1-piperazineethanesulfonic acid: 10 mmol/L, glucose:10 mmol/L pH=7.4) in which the compound of the present invention have been dissolved at an objective concentration was applied to the cell under the room temperature condition for 10 minutes. From the recording IKr, an absolute value of the tail peak current was measured based on the current value at the resting membrane potential using an analysis software (QPatch assay software; Sophion Bioscience A/S). Further, the % inhibition relative to the tail peak current before application of the compound of the present invention was calculated, and compared with the vehicle-applied group (0.1% dimethyl sulfoxide solution) to assess influence of the compound of the present invention on IKr.

For `NC1=N[C@](CF)(c2cc(NC(=O)c3cnc(OCF)cn3)ccc2F)[C@H]2CO[C@@H](CF)[C@H]2O1` [Compound I-112], the “Remaining rate (%) at 30 min” value [1] was 91%, the “P-gp ER ratio” value [2] was 5.3 and the “hERG inhibition (%) at 3 μM” value [3] was 5%.
In the case of `NC1=N[C@](CF)(c2cc(NC(=O)c3cnc(OCF)cn3)ccc2F)[C@H]2[C@H](CF)OC[C@H]2O1` [Compound I-114], the “Remaining rate (%) at 30 min” value [1] is reported as 102%, the “P-gp ER ratio” value [2] is reported as 2.1 and the “hERG inhibition (%) at 3 μM” value [3] is reported as 12.4%.
With `CC1(C)OC[C@H]2[C@@H]1OC(N)=N[C@]2(CF)c1cc(NC(=O)c2cnc(OCF)cn2)ccc1F` [Compound I-096] the “Remaining rate (%) at 30 min” value [1] was 65%, the “P-gp ER ratio” value [2] was 3.3 and the “hERG inhibition (%) at 3 μM” value [3] was 19.4%.
In the case of `NC1=N[C@](CF)(c2cc(NC(=O)c3cnc(OCF)cn3)ccc2F)[C@H]2[C@H](CCF)OC[C@H]2O1` [Compound I-115], the “Remaining rate (%) at 30 min” value [1] is reported as 93%, the “P-gp ER ratio” value [2] is reported as 3 and the “hERG inhibition (%) at 3 μM” value [3] is reported as 9.9%.
In the case of `C[C@@H]1OC[C@H]2[C@@H]1OC(N)=N[C@]2(CF)c1cc(NC(=O)c2cnc(OC(F)F)cn2)ccc1F` [Compound I-087], the “Remaining rate (%) at 30 min” value [1] is reported as 85%, the “P-gp ER ratio” value [2] is reported as 5.8 and the “hERG inhibition (%) at 3 μM” value [3] is reported as 28.7%.
For `C[C@H]1OC[C@H]2[C@@H]1OC(N)=N[C@]2(CF)c1cc(NC(=O)c2cnc(OCF)cn2)cc(F)c1F` [Compound I-070], the “Remaining rate (%) at 30 min” value [1] was 52%, the “P-gp ER ratio” value [2] was 3.8 and the “hERG inhibition (%) at 3 μM” value [3] was 9.4%.
